From PubChem BioAssay AID1963428 (Molecular Pharmacology Branch, DTP, NCI, 2024)

Test system: 171881-019-R-J1-PDC complex spheroid growth, % test/control
Test: Anticancer human tumor 171881-019-R-J1-PDC patient-derived invasive breast carcinoma cell line growth inhibition [Asc]
Settings: for IC50: curve of first compound; for viability, T/C: stronger effect = lower value; active = viability on the fitted dose curve at most 10% of control; inactive = the rest
In short: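 Tumor cells were grown as multicellular spheroids with stromal HUVEC and mesenchymal stem cells and treated singly or in combination. Concentrations fell in half-log steps from the clinical Cmax, or from 10 microM where none was known.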
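For viability, T/C in this document: spheroids exposed to compounds for 7 days.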

C#Cc1c(F)ccc2cc(O)cc(-c3ncc4c(N5CC6CCC(C5)N6)nc(OCC56CCCN5CC(F)C6)nc4c3F)c12 (stereo not given) + CNC(C)C(=O)NC1CN(S(=O)(=O)c2cccc(S(=O)(=O)N3CCC4CCC(C(=O)NC(c5ccccc5)c5ccccc5)N4C(=O)C(NC(=O)C(C)NC)C3)c2)CCC2CCC(C(=O)NC(c3ccccc3)c3ccccc3)N2C1=O
> 10 µM: IC50 (second compound 0.01 µM) | IC50 (second compound 0.0316 µM) | IC50 (second compound 0.1 µM) | IC50 (second compound 0.316 µM) | IC50 (second compound 1 µM)
inactive: viability, T/C (second compound 0.01 µM, first compound 0.0316 µM) 98% | viability, T/C (second compound 0.01 µM, first compound 0.1 µM) 116% | viability, T/C (second compound 0.01 µM, first compound 0.316 µM) 125% | viability, T/C (second compound 0.01 µM, first compound 1 µM) 187% | viability, T/C (second compound 0.01 µM, first compound 3.16 µM) 254% | viability, T/C (second compound 0.01 µM, first compound 10 µM) 248% | viability, T/C (second compound 0.0316 µM, first compound 0.0316 µM) 107% | viability, T/C (second compound 0.0316 µM, first compound 0.1 µM) 107% | viability, T/C (second compound 0.0316 µM, first compound 0.316 µM) 131% | viability, T/C (second compound 0.0316 µM, first compound 1 µM) 216% | viability, T/C (second compound 0.0316 µM, first compound 3.16 µM) 261% | viability, T/C (second compound 0.0316 µM, first compound 10 µM) 255% | viability, T/C (second compound 0.1 µM, first compound 0.0316 µM) 105% | viability, T/C (second compound 0.1 µM, first compound 0.1 µM) 122% | viability, T/C (second compound 0.1 µM, first compound 0.316 µM) 134% | viability, T/C (second compound 0.1 µM, first compound 1 µM) 168% | viability, T/C (second compound 0.1 µM, first compound 3.16 µM) 247% | viability, T/C (second compound 0.1 µM, first compound 10 µM) 245% | viability, T/C (second compound 0.316 µM, first compound 0.0316 µM) 102% | viability, T/C (second compound 0.316 µM, first compound 0.1 µM) 109% | viability, T/C (second compound 0.316 µM, first compound 0.316 µM) 109% | viability, T/C (second compound 0.316 µM, first compound 1 µM) 170% | viability, T/C (second compound 0.316 µM, first compound 3.16 µM) 214% | viability, T/C (second compound 0.316 µM, first compound 10 µM) 230% | viability, T/C (second compound 1 µM, first compound 0.0316 µM) 99.3% | viability, T/C (second compound 1 µM, first compound 0.1 µM) 109% | viability, T/C (second compound 1 µM, first compound 0.316 µM) 138% | viability, T/C (second compound 1 µM, first compound 1 µM) 170% | viability, T/C (second compound 1 µM, first compound 3.16 µM) 219% | viability, T/C (second compound 1 µM, first compound 10 µM) 235%

CCN1CCN(Cc2ccc(Nc3ncc(F)c(-c4cc(F)c5nc(C)n(C(C)C)c5c4)n3)nc2)CC1 + CCN1C(C(=O)NC23CCC(C(=O)O)(CC2)CC3)C(c2cccc(Cl)c2F)C2(C(=O)Nc3cc(Cl)ccc32)C12CCCCC2
inactive: viability, T/C (second compound 0.03 µM, first compound 0.00316 µM) 97.8% | viability, T/C (second compound 0.03 µM, first compound 0.01 µM) 86.6% | viability, T/C (second compound 0.03 µM, first compound 0.0316 µM) 108% | viability, T/C (second compound 0.03 µM, first compound 0.1 µM) 128% | viability, T/C (second compound 0.03 µM, first compound 0.316 µM) 133% | viability, T/C (second compound 0.03 µM, first compound 1 µM) 133% | viability, T/C (second compound 0.0949 µM, first compound 0.00316 µM) 104% | viability, T/C (second compound 0.0949 µM, first compound 0.01 µM) 96.2% | viability, T/C (second compound 0.0949 µM, first compound 0.0316 µM) 115% | viability, T/C (second compound 0.0949 µM, first compound 0.1 µM) 117% | viability, T/C (second compound 0.0949 µM, first compound 0.316 µM) 144% | viability, T/C (second compound 0.0949 µM, first compound 1 µM) 144% | viability, T/C (second compound 0.3 µM, first compound 0.00316 µM) 109% | viability, T/C (second compound 0.3 µM, first compound 0.01 µM) 115% | viability, T/C (second compound 0.3 µM, first compound 0.0316 µM) 109% | viability, T/C (second compound 0.3 µM, first compound 0.1 µM) 111% | viability, T/C (second compound 0.3 µM, first compound 0.316 µM) 129% | viability, T/C (second compound 0.3 µM, first compound 1 µM) 126% | viability, T/C (second compound 0.949 µM, first compound 0.00316 µM) 114% | viability, T/C (second compound 0.949 µM, first compound 0.01 µM) 119% | viability, T/C (second compound 0.949 µM, first compound 0.0316 µM) 112% | viability, T/C (second compound 0.949 µM, first compound 0.1 µM) 118% | viability, T/C (second compound 0.949 µM, first compound 0.316 µM) 129% | viability, T/C (second compound 0.949 µM, first compound 1 µM) 143% | viability, T/C (second compound 3 µM, first compound 0.00316 µM) 101% | viability, T/C (second compound 3 µM, first compound 0.01 µM) 107% | viability, T/C (second compound 3 µM, first compound 0.0316 µM) 115% | viability, T/C (second compound 3 µM, first compound 0.1 µM) 130% | viability, T/C (second compound 3 µM, first compound 0.316 µM) 146% | viability, T/C (second compound 3 µM, first compound 1 µM) 144%
> 1 µM: IC50 (second compound 0.03 µM) | IC50 (second compound 0.0949 µM) | IC50 (second compound 0.3 µM) | IC50 (second compound 0.949 µM) | IC50 (second compound 3 µM)
